Test [1] deals with T1, human androgen receptor (hAR) (Homo sapiens, UniProt P10275).
T1 construct: made in house; host or cells: baculovirus/Sf9 insect cells (crude extract)
T1 sequence (P10275 1-920): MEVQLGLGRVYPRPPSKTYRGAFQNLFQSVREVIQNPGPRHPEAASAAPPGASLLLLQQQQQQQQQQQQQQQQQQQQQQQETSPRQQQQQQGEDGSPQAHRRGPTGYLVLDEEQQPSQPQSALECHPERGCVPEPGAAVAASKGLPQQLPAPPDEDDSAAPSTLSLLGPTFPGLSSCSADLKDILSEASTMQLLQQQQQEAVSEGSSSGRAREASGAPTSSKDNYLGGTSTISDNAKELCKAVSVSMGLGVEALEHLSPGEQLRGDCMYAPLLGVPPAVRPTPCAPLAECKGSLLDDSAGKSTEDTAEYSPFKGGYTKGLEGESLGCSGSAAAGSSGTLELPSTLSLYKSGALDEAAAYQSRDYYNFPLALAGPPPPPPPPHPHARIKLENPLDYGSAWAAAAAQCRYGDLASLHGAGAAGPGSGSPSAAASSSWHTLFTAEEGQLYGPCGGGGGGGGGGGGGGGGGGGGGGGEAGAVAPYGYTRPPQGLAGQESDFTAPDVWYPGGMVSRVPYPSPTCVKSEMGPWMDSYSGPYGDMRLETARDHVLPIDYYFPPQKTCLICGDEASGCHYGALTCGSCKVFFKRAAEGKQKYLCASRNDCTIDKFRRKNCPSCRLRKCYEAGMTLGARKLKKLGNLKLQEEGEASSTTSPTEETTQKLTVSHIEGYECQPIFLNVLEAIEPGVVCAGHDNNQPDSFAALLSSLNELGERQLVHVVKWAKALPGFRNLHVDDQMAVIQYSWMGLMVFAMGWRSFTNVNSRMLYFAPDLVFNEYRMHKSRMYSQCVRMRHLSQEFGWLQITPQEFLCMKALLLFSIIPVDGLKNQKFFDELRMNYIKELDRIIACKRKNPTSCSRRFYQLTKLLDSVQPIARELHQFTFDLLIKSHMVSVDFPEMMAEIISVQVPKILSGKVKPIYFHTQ
The experiment in a line: Competitive binding analysis on baculovirus/Sf9 generated hAR extracts with 3H-DHT tracer. The conditions noted are these: hAR extract, 1 nM 3H-DHT, one hour at 4° C, mean of multiple tests. In a few lines: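 Baculovirus/Sf9-expressed hAR extract incubated with hydroxylapatite, 1 nM 3H-DHT and decreasing compound concentrations for 1 h at 4 °C, then washed three times to remove unbound tracer. Bound 3H-DHT compared with no-competitor maximum; affinity given as concentration inhibiting half of maximum binding, mean of multiple tests.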

Test [2] concerns the target T2, androgen receptor (Homo sapiens, UniProt P10275).
T2 sequence (P10275 1-920 Q868H): T1 sequence (P10275 1-920) with Q868H
The experiment in a line: AR antagonist cell assay (MDA-MB453-MMTV clone 54-19 luciferase reporter, 100 pM DHT). The note with it: MDA-MB453-MMTV clone 54-19, inhibition of 100 pM DHT induction, 17 hr; mean of multiple tests; read-out: AR Cell IC50. The format is cell-based. The essentials:
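MDA-MB453 cells stably carrying an MMTV-ARE firefly luciferase reporter were plated overnight at 10,000/well in phenol-red-free, charcoal-stripped serum medium. Cells were stimulated with 100 pM DHT (final) for 17 hr at 37 °C, and AR antagonism was read as luciferase signal; values are means of multiple tests.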
In general terms: In a reporter assay the amount or activity of a reporter protein is the signal.

Data on eight compounds can be found in patent publication US7507860B2 (Pfizer Inc., priority 2004, dated 2009).

Each structure is given as a SMILES string. Substitutions are numbered along the chain they refer to. Where two headings read alike, the source gives them in different places.

Broadly, the IC50 is the midpoint of a concentration-inhibition curve.

`CC(C)CC(Oc1ccc(C#N)c(C(F)(F)F)c1)C(=O)N[C@@H](C)c1ccc(O)cc1` (stereo in doubt) [Example 120, 2-(4-Cyano-3-trifluoromethyl-phenoxy)-4-methyl-pentanoic acid [1-(4-hydroxy-phenyl)-ethyl]-amide]: the IC50 in test [1] (read-out: AR Binding IC50) came out at 98 nM; in test [2], 44 nM.
`CCCC(Oc1ccc(C#N)c(C(F)(F)F)c1)C(=O)N[C@H](C)c1ccc(OC)cc1` (stereo in doubt) [Example 123, 2-(4-Cyano-3-trifluoromethyl-phenoxy)-pentanoic acid [1-(4-methoxy-phenyl)-ethyl]-amide]: the IC50 was 653 nM in test [1] (read-out: AR Binding IC50) and 681 nM in test [2].
On to `CCC(Oc1ccc(C#N)c(C(F)(F)F)c1)C(=O)NCc1ccccc1` (stereo not shown) [Example 93, N-Benzyl-2-(4-Cyano-3-trifluoromethyl-phenoxy)-butyramide], for which the concentration for half-maximal inhibition (IC50) in test [1] (AR Binding IC50 (nM)) was 485 nM; in test [2] it was 563 nM.
On to `CCCCC(Oc1ccc(C#N)c(C(F)(F)F)c1)C(=O)NCc1ccccc1` (stereo not shown) [Example 91, 2-(4-Cyano-3-trifluoromethyl-phenoxy)-hexanoic acid benzylamide], for which the IC50 in test [1] (read-out: AR Binding IC50) was found to be 70 nM; in test [2], 535 nM.
The corresponding values for `CCCC(Oc1ccc(C#N)c(C(F)(F)F)c1)C(=O)NCc1ccc2c(c1)CCO2` (stereo not shown) [Example 30, 2-(4-Cyano-3-trifluoromethyl-phenoxy)-pentanoic acid (2,3-dihydro-benzofuran-5-yl-methyl)-amide] are 134 nM and 355 nM.
The matching figures for `CC(C)CC(Oc1ccc(C#N)c(C(F)(F)F)c1)C(=O)NCCOc1ccccc1` (stereo not shown) [Example 10, 2-(4-Cyano-3-trifluoromethyl-phenoxy)-4-methyl-pentanoic acid (2-phenoxyethyl)-amide]: 91 nM and greater than 1000 nM.
`COc1ccccc1CCNC(=O)C(CC(C)C)Oc1ccc(C#N)c(C(F)(F)F)c1` (stereo not shown) [Example 48, 2-(4-Cyano-3-trifluoromethyl-phenoxy)-4-methyl-pentanoic acid-[2-(2-methoxyphenyl)-ethyl]-amide]: the IC50 in test [1] (read-out: AR Binding IC50) is 123 nM; in test [2], greater than 1000 nM.
Regarding `CCCC(Oc1ccc(C#N)c(C(F)(F)F)c1)C(=O)NCc1ccccc1C` (stereo not shown) [Example 44, 2-(4-Cyano-3-trifluoromethyl-phenoxy)-pentanoic acid-2-methyl-benzylamide], the results for the IC50 in test [1] (AR Binding IC50 (nM)) and in test [2] were 42 nM and 37 nM, respectively.
